The target in one series is MRP2 (ABCC2) (Homo sapiens, UniProt Q92887). Description: in vitro. The note with it: dog, membrane vesicles from MRP2-expressing MDCK cells, probe DNP-SG.
Substrate in series [1]: N[C@@H](CCC(=O)N[C@H](CSc1ccc([N+](=O)[O-])cc1[N+](=O)[O-])C(=O)NCC(=O)O)C(=O)O
Description: TP_TRANSPORTER: uptake in membranes from MRP2-expressing MDCK cells. The format is functional, cell membranes, MDCK-II, Membrane.

Description for MRP2 (ABCC2): TP_TRANSPORTER: inhibition of DNP-SG uptake (DNP-SG: 0.015 uM, GSH: 15 mM) in membrane vesicles from MRP2-expressing MDCK cells

As for `N[C@@H](CCC(=O)N[C@@H](CS)C(=O)NCC(=O)O)C(=O)O` [GLUTATHIONE], at MRP2 (ABCC2), the activity at 15 mM worked out at 51%.

B1: ATP-binding cassette sub-family C member 2 (Homo sapiens) (protein)
chain: MLEKFCNSTFWNSSFLDSPEADLPLCFEQTVLVWIPLGYLWLLAPWQLLHVYKSRTKRSSTTKLYLAKQVFVGFLLILAAIELALVLTEDSGQATVPAVRYTNPSLYLGTWLLVLLIQYSRQWCVQKNSWFLSLFWILSILCGTFQFQTLIRTLLQGDNSNLAYSCLFFISYGFQILILIFSAFSENNESSNNPSSIASFLSSITYSWYDSIILKGYKRPLTLEDVWEVDEEMKTKTLVSKFETHMKRELQKARRALQRRQEKSSQQNSGARLPGLNKNQSQSQDALVLEDVEKKKKKSGTKKDVPKSWLMKALFKTFYMVLLKSFLLKLVNDIFTFVSPQLLKLLISFASDRDTYLWIGYLCAILLFTAALIQSFCLQCYFQLCFKLGVKVRTAIMASVYKKALTLSNLARKEYTVGETVNLMSVDAQKLMDVTNFMHMLWSSVLQIVLSIFFLWRELGPSVLAGVGVMVLVIPINAILSTKSKTIQVKNMKNKDKRLKIMNEILSGIKILKYFAWEPSFRDQVQNLRKKELKNLLAFSQLQCVVIFVFQLTPVLVSVVTFSVYVLVDSNNILDAQKAFTSITLFNILRFPLSMLPMMISSMLQASVSTERLEKYLGGDDLDTSAIRHDCNFDKAMQFSEASFTWEHDSEATVRDVNLDIMAGQLVAVIGPVGSGKSSLISAMLGEMENVHGHITIKGTTAYVPQQSWIQNGTIKDNILFGTEFNEKRYQQVLEACALLPDLEMLPGGDLAEIGEKGINLSGGQKQRISLARATYQNLDIYLLDDPLSAVDAHVGKHIFNKVLGPNGLLKGKTRLLVTHSMHFLPQVDEIVVLGNGTIVEKGSYSALLAKKGEFAKNLKTFLRHTGPEEEATVHDGSEEEDDDYGLISSVEEIPEDAASITMRRENSFRRTLSRSSRSNGRHLKSLRNSLKTRNVNSLKEDEELVKGQKLIKKEFIETGKVKFSIYLEYLQAIGLFSIFFIILAFVMNSVAFIGSNLWLSAWTSDSKIFNSTDYPASQRDMRVGVYGALGLAQGIFVFIAHFWSAFGFVHASNILHKQLLNNILRAPMRFFDTTPTGRIVNRFAGDISTVDDTLPQSLRSWITCFLGIISTLVMICMATPVFTIIVIPLGIIYVSVQMFYVSTSRQLRRLDSVTRSPIYSHFSETVSGLPVIRAFEHQQRFLKHNEVRIDTNQKCVFSWITSNRWLAIRLELVGNLTVFFSALMMVIYRDTLSGDTVGFVLSNALNITQTLNWLVRMTSEIETNIVAVERITEYTKVENEAPWVTDKRPPPDWPSKGKIQFNNYQVRYRPELDLVLRGITCDIGSMEKIGVVGRTGAGKSSLTNCLFRILEAAGGQIIIDGVDIASIGLHDLREKLTIIPQDPILFSGSLRMNLDPFNNYSDEEIWKALELAHLKSFVASLQLGLSHEVTEAGGNLSIGQRQLLCLGRALLRKSKILVLDEATAAVDLETDNLIQTTIQNEFAHCTVITIAHRLHTIMDSDKVMVLDNGKIIECGSPEELLQIPGPFYFMAKEAGIENVNSTKF
Turning to B1, in series [1], the Km is 70 µM.
